The results in this text go back to paper PMC4607639 (Bioorganic & medicinal chemistry letters, 2015).

Series [1] in a line: Aqueous solubility, shake-flask procedure. Format: physicochemical. To be noted: for fold less soluble than the corresponding triazines: pyrimidines 7d, 8c versus triazines 7g, 8f.
The subject of series [2] is MT-2 human T-cells. Briefly: Cytotoxicity, inhibition of MT-2 cell growth. Format: cell-based. To be noted: inhibition of MT-2 cell growth by 50%.

Each structure is given as a SMILES string.

Take `Cc1cn2cc(C#N)cc2c(C)c1Nc1ccnc(Nc2ccc(C#N)cc2)n1` [Compound 7d]: the “fold less soluble than the corresponding triazines” value in series [1] is listed as 2-4 fold.

Turning to `Cc1cc2cc(C#N)ccc2c(C)c1Nc1ccnc(Nc2ccc(C#N)cc2)n1` [Compound 8c], in series [1], the “fold less soluble than the corresponding triazines” value is listed as 2-4 fold.

As to `Cc1cc2cc(C#N)ccc2c(C)c1Nc1ncnc(Nc2ccc(C#N)cc2)n1` [Compound 8f], in series [1] (versus rilpivirine), the “solubility fold greater than for rilpivirine” value is reported as “ca. 1000 fold”.

On to `N#Cc1ccc(Nc2ncnc(Nc3c(F)cc4cc(C#N)ccc4c3F)n2)cc1` [Compound 8h], for which the CC50 entry in series [2] is “no cytotoxicity”.
